According to ChEMBL document CHEMBL1201862, “PubChem BioAssay data set” (2004):
The source made the active and inactive calls.

Experiments:
[1] = mouse fibroblast viability loss – cell-based, cherry-pick samples, set 2, cytotoxicity control for T. cruzi growth inhibitor project, dose response (AID 651817); type: functional; settings: NIH3T3
[2] = biological target: Ras and Rab interactor 1/Tyrosine-protein kinase ABL1 (Homo sapiens, UniProt P00519+Q13671); type: functional;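 note: biochemical TR-FRET dose-response test measuring inhibition of binding between Rin1 and Abl proteins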
[3] = biological target: Aryl hydrocarbon receptor (Homo sapiens, UniProt P35869); settings: Potency;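 note: confirmatory quantitative high-throughput screen measuring activation of the AhR signaling pathway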
Melanocortin receptor 4 = Melanocortin receptor 4 (Homo sapiens, UniProt P32245); type: functional, cell-based;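 note: Cell-based assay with luminescence read-out, confirmatory dose-response testing for agonist activity of biased ligands at MC4R; human U2OS cells with tagged receptor and beta-arrestin; potency of agonists that increase receptor coupling to beta-arrestin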
[4] = NIH3T3 cell viability loss – ATP luminescence, mouse fibroblasts, counter-screen, dose response (AID 2010); type: functional, cell-based;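 note: cells exposed to compound for about 90 hours before reading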
[5] = biological target: Mitochondrial peptide methionine sulfoxide reductase (Bos taurus, UniProt P54149); test: Absorbance-based biochemical high throughput dose response assay for activators of Methionine sulfoxide reductase A (MsrA).; type: functional
[6] = biological target: T1, Mannose-6-phosphate isomerase (Homo sapiens, UniProt P34949); test: MPI inhibition at elevated mannose 6-phosphate – biochemical, fluorescence intensity, high mannose 6-phosphate, primary screen (AID 1220)
T1 sequence (P34949 whole entry): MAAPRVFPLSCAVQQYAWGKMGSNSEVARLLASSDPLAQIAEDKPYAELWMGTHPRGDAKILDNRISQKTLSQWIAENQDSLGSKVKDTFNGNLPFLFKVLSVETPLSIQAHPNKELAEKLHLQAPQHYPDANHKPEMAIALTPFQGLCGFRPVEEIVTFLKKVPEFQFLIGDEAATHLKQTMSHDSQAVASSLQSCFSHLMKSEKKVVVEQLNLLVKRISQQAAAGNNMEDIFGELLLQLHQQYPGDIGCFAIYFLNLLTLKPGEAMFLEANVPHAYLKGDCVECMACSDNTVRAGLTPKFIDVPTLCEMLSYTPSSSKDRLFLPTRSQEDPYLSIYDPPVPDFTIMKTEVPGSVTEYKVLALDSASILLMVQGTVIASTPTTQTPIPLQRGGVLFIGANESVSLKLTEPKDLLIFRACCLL

[7] = biological target: Heat shock protein HSP 90-alpha (Homo sapiens, UniProt P07900); type: functional, organism-based
[8] = Trypanosoma cruzi growth suppression in host cells – NIH3T3 host cells, beta-gal luminescence, confirmation (AID 2044); type: functional, cell-based;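 note: intracellular parasites grown in NIH/3T3 mouse fibroblasts as host cells; luminescent beta-galactosidase reporter signal from transgenic T. cruzi replicating inside host cells; inhibitors lower the luminescence signal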
[9] = biological target: T2, Low molecular weight phosphotyrosine protein phosphatase (Homo sapiens, UniProt P24666); type: functional; settings: read-out: IC50_Mean
T2 sequence (P24666 whole entry): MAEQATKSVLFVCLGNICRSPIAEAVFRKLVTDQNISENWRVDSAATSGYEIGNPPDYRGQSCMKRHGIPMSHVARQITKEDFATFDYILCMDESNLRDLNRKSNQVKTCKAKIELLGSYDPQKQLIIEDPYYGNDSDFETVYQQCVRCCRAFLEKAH

Cytochrome P450 3A4 = Cytochrome P450 3A4 (Homo sapiens, UniProt P08684);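 note: CYP3A4 tested as one member of a cytochrome P450 panel screen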
[10] = biological target: T2, Low molecular weight phosphotyrosine protein phosphatase; type: functional; settings: read-out: IC50_Mean; remark: listed apart in the source
Cytochrome P450 2D6 = Cytochrome P450 2D6 (Homo sapiens, UniProt P10635);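 note: CYP2D6 member of a cytochrome P450 panel assay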
Cytochrome P450 2C19 = Cytochrome P450 2C19 (Homo sapiens, UniProt P33261); test: Cytochrome panel assay with activity outcomes. Panel member name: p450-cyp2c19 Compounds with AC50 equal or less than 10 uM are considered active; type: functional; settings: read-out: AC50
[11] = inhibition of ARNT PAS-B/TACC3 complex formation – biochemical, AlphaScreen, cherry-picked samples, confirmation (AID 651703); type: functional, Homo sapiens;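 note: His-tagged ARNT PAS-B domain paired with GST-TACC3 E629A dimer coactivator fragment; potency of inhibitors that break up the complex and lower AlphaScreen signal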
Cytochrome P450 2C9 = Cytochrome P450 2C9 (Homo sapiens, UniProt P11712)
Large T antigen = Large T antigen (Simian virus 40, UniProt P03070); type: functional, Betapolyomavirus macacae;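 note: Confirmatory-stage PubChem screen for compounds that inhibit SV40 T antigen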
[12] = biological target: T3, Rac GTPase-activating protein 1 (Homo sapiens, UniProt Q9H0H5); test: blockers of MgcRacGAP-driven Rac1 GTP hydrolysis – biochemical, ADP Hunter fluorescence, primary and confirmatory, confirmation (AID 624330); type: functional
T3 sequence (Q9H0H5 whole entry): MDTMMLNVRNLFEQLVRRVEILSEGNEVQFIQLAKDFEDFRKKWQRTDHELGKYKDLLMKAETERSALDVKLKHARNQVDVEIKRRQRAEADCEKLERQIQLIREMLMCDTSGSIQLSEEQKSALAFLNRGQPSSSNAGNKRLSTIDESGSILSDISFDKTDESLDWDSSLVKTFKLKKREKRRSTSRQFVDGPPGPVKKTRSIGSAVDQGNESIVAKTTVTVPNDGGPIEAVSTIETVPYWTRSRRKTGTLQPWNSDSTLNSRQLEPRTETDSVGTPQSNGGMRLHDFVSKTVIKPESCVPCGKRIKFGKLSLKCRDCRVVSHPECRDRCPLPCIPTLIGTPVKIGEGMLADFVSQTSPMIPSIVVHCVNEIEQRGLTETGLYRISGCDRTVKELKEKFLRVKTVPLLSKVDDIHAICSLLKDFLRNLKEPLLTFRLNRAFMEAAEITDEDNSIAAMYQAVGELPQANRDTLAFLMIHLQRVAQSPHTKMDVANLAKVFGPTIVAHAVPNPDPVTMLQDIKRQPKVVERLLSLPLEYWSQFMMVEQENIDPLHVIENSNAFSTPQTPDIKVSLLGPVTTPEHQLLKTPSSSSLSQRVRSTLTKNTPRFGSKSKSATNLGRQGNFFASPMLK

[13] = biological target: T4, Small ubiquitin-related modifier 1 (Homo sapiens, UniProt P63165); test: SUMO1 protein-protein binding blockers, potency – biochemical, FRET, dose response (AID 624383); type: functional; settings: read-out: IC50_Mean
[14] = biological target: T5, Tyrosine-protein phosphatase non-receptor type 7 (Homo sapiens, UniProt P35236); type: functional
T5 sequence (P35236 whole entry): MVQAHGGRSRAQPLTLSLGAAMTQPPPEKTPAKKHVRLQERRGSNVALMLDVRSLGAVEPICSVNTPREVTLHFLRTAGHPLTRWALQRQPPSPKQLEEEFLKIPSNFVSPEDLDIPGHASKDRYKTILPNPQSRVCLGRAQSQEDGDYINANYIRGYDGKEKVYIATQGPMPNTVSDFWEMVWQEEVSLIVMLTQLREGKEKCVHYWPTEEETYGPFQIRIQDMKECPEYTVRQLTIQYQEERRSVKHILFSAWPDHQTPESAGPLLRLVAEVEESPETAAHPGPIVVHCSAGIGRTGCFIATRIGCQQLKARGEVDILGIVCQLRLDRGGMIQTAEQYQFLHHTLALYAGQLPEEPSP

[15] = biological target: Heat shock 70 kDa protein 1A (Homo sapiens, UniProt P0DMV8); test: inhibition of Hsp70 binding activity – biochemical, fluorescence polarization, SAR follow-up (AID 1072)
ORF 73 = biological target: T6, ORF 73 (Human herpesvirus 8, UniProt O40947); test: KSHV LANA DNA-binding disruption – biochemical, fluorescence polarization, cherry-picked samples, dose response (AID 504725); design: species or system Human gammaherpesvirus 8;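 note: fluorescence polarization of a labeled DNA duplex reporting LANA DNA binding; potency is for inhibitors that block LANA binding to the DNA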
T6 sequence (O40947 whole entry): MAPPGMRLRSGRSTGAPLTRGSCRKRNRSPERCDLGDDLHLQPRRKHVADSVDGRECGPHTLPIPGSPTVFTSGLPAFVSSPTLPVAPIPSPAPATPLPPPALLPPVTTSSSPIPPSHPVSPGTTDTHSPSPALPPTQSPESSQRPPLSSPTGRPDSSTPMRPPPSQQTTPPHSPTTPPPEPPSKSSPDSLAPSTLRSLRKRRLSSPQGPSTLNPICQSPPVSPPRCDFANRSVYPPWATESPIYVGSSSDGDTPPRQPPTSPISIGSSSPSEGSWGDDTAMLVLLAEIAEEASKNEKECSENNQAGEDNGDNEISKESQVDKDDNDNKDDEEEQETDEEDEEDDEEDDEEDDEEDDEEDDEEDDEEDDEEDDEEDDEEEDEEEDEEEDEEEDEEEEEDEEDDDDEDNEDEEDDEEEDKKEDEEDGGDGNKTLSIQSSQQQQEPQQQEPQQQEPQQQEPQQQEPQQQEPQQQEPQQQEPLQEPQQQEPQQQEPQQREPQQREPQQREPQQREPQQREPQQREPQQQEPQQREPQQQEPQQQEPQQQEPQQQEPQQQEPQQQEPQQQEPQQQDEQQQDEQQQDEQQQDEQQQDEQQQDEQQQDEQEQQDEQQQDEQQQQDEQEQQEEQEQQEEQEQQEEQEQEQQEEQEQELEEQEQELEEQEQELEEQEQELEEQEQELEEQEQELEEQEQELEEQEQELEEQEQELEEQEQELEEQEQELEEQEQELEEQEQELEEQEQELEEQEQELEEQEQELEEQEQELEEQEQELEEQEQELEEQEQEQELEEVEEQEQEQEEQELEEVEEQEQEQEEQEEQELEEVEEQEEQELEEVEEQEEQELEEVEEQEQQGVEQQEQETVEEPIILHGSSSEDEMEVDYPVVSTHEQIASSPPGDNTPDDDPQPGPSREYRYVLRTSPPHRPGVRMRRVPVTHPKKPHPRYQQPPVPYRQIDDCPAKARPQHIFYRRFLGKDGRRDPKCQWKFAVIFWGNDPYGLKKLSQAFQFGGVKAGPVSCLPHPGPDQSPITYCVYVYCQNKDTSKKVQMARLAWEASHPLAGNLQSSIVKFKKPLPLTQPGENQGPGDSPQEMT

[16] = biological target: Glyceraldehyde-3-phosphate dehydrogenase (Homo sapiens, UniProt P04406)
HeLa = test: viability loss in HeLa cells – cell-based, 24 h, cherry-picked samples, cytotoxicity control, dose response (AID 504726); type: functional; settings: Homo sapiens;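 note: potency for cytotoxicity as loss of luminescence signal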
[17] = biological target: T7, Small ubiquitin-related modifier 2 (Homo sapiens, UniProt P61956); test: SUMO2 binding disruption by SUMO1 hits – biochemical, FRET, human SUMO2, uHTS hits, selectivity assay for SUMO1 interaction inhibitor project, dose response (AID 624384); type: functional; settings: read-out: IC50_Mean
[18] = biological target: Heat shock cognate 71 kDa protein (Homo sapiens, UniProt P11142); test: In Vitro Hsc70 Dose Response Fluorescence Polarization Assay. [Related pubchem assays: 1072 ]
[19] = biological target: T7, Small ubiquitin-related modifier 2; test: disruption of SUMO2 interaction with SIM peptide – biochemical, fluorescence polarization, uHTS hits, selectivity assay for SUMO1 interaction inhibitor project, dose response (AID 624385); type: functional; settings: read-out: IC50_Mean
[20] = biological target: T8, Dual specificity protein phosphatase 6 (Rattus norvegicus, UniProt Q64346)
T8 sequence (Q64346 whole entry): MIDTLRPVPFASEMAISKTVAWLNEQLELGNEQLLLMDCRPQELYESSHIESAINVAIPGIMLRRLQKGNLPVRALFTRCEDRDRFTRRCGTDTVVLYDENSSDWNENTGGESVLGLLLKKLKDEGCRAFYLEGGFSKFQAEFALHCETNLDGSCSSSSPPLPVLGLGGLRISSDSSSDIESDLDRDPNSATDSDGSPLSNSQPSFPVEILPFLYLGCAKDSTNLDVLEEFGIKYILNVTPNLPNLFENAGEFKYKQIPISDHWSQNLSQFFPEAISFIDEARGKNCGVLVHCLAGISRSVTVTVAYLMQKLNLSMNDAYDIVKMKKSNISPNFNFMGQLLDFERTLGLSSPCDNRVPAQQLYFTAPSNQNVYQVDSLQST

[21] = biological target: T8, Dual specificity protein phosphatase 6; type: functional
[22] = biological target: T4, Small ubiquitin-related modifier 1; test: SUMO1 protein interaction blockers, potency – biochemical, fluorescence polarization, uHTS hits, dose response (AID 624382); type: functional; settings: read-out: IC50_Mean
NS3 = NS3 (Hepatitis C virus, UniProt A3EZJ3); test: PubChem AID 2173; design: species or system Hepacivirus hominis

T4 sequence (P63165 whole entry): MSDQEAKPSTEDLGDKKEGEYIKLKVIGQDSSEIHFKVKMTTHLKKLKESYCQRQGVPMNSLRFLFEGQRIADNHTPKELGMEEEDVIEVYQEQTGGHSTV
T7 sequence (P61956 whole entry): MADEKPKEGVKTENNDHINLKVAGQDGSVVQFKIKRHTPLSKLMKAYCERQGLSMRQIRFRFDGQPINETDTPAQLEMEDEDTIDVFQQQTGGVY
Chain of Large T antigen (P03070 whole entry): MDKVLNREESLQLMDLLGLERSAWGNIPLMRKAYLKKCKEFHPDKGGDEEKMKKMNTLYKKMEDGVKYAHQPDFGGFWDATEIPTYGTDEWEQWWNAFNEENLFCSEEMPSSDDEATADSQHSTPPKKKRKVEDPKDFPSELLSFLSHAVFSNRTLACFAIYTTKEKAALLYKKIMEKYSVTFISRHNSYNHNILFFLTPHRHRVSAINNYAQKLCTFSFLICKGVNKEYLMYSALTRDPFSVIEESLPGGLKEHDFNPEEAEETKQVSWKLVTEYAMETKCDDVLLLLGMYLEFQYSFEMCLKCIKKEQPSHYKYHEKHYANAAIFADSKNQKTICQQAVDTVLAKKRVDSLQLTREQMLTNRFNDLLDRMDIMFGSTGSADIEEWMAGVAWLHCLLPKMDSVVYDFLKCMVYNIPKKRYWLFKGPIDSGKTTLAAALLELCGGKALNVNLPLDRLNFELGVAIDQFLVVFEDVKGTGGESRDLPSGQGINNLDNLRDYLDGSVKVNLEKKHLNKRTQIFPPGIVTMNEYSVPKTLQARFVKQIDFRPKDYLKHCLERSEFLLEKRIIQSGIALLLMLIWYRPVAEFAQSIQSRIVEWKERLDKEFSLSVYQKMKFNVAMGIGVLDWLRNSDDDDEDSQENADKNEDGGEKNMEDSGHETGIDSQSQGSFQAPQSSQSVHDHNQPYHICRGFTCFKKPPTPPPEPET
Chain of Aryl hydrocarbon receptor (P35869 whole entry): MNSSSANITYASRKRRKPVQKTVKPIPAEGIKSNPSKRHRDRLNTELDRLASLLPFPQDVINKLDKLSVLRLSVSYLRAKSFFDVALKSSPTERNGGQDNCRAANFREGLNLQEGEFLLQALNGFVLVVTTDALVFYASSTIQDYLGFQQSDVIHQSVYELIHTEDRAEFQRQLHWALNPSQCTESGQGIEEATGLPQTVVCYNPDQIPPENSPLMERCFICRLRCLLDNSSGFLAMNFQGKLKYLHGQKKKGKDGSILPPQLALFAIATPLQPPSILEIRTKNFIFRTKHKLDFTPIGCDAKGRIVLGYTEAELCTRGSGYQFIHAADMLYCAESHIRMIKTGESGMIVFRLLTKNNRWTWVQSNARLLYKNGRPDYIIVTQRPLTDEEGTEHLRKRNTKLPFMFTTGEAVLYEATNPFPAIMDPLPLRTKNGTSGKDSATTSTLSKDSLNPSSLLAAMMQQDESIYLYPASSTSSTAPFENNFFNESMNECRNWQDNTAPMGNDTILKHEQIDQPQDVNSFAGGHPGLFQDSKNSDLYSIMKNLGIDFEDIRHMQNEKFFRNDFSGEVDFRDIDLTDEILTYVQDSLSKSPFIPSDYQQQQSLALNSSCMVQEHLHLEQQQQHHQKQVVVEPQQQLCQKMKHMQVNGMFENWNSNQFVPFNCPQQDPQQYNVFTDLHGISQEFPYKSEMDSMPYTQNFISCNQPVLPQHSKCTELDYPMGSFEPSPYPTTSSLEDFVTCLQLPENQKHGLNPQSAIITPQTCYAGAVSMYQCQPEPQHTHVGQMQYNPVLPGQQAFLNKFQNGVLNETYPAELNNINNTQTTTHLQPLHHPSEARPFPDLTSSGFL
Chain of Cytochrome P450 2D6 (P10635 whole entry): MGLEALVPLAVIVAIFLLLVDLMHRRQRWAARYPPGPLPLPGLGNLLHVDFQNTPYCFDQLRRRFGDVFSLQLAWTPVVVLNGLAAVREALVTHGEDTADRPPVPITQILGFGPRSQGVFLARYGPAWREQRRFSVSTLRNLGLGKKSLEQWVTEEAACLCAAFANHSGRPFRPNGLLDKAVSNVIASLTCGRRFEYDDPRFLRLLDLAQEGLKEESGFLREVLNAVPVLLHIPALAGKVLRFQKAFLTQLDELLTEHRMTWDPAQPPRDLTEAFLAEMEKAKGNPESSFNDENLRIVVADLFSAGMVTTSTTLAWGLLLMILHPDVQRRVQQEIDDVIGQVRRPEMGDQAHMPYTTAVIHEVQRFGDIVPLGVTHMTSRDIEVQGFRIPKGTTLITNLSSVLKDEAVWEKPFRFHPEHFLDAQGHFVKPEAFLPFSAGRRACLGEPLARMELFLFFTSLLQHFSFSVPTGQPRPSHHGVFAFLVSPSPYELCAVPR
Chain of Heat shock cognate 71 kDa protein (P11142 whole entry): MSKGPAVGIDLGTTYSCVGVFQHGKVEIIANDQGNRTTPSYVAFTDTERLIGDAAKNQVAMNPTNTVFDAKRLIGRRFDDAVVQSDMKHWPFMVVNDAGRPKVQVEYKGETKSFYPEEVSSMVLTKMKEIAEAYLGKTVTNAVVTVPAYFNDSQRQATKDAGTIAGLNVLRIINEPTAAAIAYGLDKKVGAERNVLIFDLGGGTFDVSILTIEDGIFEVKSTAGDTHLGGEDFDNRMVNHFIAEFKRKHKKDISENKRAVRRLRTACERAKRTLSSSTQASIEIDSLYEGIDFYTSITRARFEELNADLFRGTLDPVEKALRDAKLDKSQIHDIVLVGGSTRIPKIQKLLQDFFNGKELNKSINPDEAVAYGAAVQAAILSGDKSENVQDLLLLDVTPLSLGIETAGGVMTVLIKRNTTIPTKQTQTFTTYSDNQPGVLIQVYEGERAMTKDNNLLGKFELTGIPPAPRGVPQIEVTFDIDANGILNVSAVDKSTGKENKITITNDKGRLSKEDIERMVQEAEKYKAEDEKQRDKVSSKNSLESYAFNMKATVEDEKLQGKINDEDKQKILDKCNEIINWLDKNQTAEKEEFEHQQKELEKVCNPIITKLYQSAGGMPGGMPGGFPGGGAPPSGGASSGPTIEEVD
Chain of Cytochrome P450 2C9 (P11712 whole entry): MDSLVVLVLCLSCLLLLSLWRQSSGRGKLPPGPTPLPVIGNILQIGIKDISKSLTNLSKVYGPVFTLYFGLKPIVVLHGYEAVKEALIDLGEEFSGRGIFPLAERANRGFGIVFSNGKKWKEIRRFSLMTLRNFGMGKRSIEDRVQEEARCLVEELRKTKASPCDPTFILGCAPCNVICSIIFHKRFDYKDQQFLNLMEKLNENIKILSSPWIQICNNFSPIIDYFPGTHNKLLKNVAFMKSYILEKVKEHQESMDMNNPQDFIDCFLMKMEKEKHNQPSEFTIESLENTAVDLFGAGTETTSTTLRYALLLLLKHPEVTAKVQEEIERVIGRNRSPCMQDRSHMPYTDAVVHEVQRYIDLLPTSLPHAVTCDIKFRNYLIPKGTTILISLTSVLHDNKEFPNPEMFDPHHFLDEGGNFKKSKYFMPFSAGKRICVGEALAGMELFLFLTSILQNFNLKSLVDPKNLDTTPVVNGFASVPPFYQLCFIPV
Chain of Cytochrome P450 3A4 (P08684 whole entry): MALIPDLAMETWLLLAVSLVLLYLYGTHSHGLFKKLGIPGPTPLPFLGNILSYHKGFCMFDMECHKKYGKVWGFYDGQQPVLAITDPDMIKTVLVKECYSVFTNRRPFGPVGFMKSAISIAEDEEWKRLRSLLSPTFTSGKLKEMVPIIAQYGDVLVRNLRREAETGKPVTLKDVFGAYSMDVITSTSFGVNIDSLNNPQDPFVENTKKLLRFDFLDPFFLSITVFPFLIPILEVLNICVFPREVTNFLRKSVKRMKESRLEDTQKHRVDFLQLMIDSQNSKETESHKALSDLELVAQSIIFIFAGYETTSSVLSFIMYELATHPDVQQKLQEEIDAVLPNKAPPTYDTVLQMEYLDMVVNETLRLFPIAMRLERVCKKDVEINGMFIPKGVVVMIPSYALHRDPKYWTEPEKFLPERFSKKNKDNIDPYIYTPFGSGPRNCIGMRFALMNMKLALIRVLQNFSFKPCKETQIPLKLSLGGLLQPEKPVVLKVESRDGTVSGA
Chain of Melanocortin receptor 4 (P32245 whole entry): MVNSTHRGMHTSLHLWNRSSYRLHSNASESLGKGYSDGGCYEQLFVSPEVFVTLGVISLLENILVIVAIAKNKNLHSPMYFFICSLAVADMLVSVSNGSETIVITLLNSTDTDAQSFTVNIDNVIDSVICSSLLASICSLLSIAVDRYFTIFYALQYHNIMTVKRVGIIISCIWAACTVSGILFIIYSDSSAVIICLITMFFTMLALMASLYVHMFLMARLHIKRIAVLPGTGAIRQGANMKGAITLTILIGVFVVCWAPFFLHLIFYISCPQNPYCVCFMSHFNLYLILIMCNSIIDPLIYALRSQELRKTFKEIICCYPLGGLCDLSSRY
Chain of Mitochondrial peptide methionine sulfoxide reductase (P54149 whole entry): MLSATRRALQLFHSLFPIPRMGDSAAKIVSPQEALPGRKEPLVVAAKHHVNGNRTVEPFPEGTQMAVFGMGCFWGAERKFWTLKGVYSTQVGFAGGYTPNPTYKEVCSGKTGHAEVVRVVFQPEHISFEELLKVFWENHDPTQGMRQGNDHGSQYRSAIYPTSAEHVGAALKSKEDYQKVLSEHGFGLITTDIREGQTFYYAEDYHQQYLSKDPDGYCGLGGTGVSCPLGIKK
Chain of Cytochrome P450 2C19 (P33261 whole entry, the tested form may be a part): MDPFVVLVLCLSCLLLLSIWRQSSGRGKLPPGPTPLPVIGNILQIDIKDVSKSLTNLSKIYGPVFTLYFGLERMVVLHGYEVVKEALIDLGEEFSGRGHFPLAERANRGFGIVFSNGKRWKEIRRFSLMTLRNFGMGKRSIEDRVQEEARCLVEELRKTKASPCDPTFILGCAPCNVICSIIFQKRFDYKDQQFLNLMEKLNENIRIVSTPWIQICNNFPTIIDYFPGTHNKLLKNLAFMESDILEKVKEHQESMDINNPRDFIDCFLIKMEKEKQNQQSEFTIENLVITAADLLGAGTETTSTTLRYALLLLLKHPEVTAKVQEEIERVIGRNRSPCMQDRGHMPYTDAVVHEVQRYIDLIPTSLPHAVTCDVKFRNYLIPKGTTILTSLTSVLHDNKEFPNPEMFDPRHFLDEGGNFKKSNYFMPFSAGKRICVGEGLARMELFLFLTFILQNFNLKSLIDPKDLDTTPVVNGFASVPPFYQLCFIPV

Cc1ccc(S(=O)(=O)Nc2ccc3c(c2)CC(=O)N([C@@H](C)CO)C[C@@H](C)[C@H](CN(C)S(=O)(=O)c2ccc(Cl)cc2)O3)cc1
AC50 [1]: 17.8 µM (active)

CCC(c1nc2ccccc2c(=O)n1CCCn1ccnc1)N1C(=O)c2ccccc2C1=O (stereo unspecified)
IC50 [2]: 35.2 µM (inactive)

CCSC(=O)N(CC)C1CCCCC1 [CYCLOATE]
AC50 [3]: 0.794 µM (inconclusive)

Cc1cc(C)nc(Nc2nc(C(N)Cc3ccc(C(F)(F)F)cc3)cs2)n1 (stereo unspecified)
EC50 (Melanocortin receptor 4): > 89.2 µM (inactive)

O=[N+]([O-])c1ccc(/C=N/c2cccc3ccccc23)s1
EC50 [4]: > 60 µM (not active) | EC50 [5]: > 104 µM (inactive) | IC50 [6]: > 50 µM (not active) | AC50 [7]: 7.99 µM (active) | EC50 [8]: 2.73 µM (active)

c1ccc(-c2nc(NCc3cccnc3)c3ccccc3n2)cc1
IC50 [9]: 25.1 µM (inactive) | AC50 (Cytochrome P450 3A4): 1 µM (inconclusive) | IC50 [10]: 8.37 µM (active) | AC50 (Cytochrome P450 2D6): 17.8 µM (inconclusive)

CC(C)c1ccc(O)c(NC(=O)c2nc[nH]n2)c1
AC50 (Cytochrome P450 2C19): 25.1 µM (inconclusive) | AC50 [11]: 118 µM (active) | AC50 (Cytochrome P450 2C9): 20 µM (inconclusive)

Cc1cc(C)c2c(c1)NC(C(=O)O)C1CC=CC21 (stereo unspecified)
IC50 (Large T antigen): 26.8 µM (active) | IC50 [12]: 171 µM (active) | IC50 [13]: 22.8 µM (inactive) | IC50 [14]: > 100 µM (not active) | IC50 [15]: > 100 µM (not active) | AC50 (ORF 73): 61.2 µM (active) | IC50 [16]: 91.4 µM (active) | AC50 (HeLa): 264 µM (active) | IC50 [17]: 3.69 µM (active) | IC50 [18]: > 100 µM (not active) | IC50 [19]: 13.4 µM (active) | IC50 [20]: 41.3 µM (active) | IC50 [21]: 46.1 µM (active) | IC50 [22]: 4.97 µM (active) | IC50 (NS3): 3.67 µM (active)
